Data from patent US20080275076A1, “Pharmaceutical Compositions Comprising Sirolimus and/or an Analogue Thereof” (priority 2005, published 2008).
Where two headings read alike, the source gives them in different places.

Columns and labels:
[1] = Solubility of sirolimus in various vehicles at 70° C. (visual inspection); type: physicochemical
Method: In the following table is given the solubility of sirolimus in various vehicles (please note that the solubility is determined by visual inspection): […]

[2] = cited from earlier work

CO[C@H]1C[C@@H]2CC[C@@H](C)[C@@](O)(O2)C(=O)C(=O)N2CCCC[C@H]2C(=O)O[C@H]([C@H](C)C[C@@H]2CC[C@@H](O)[C@H](OC)C2)CC(=O)[C@H](C)/C=C(\C)[C@@H](O)[C@@H](OC)C(=O)[C@H](C)C[C@H](C)/C=C/C=C/C=C/1C [Sirolimus]
% Sirolimus dissolved 70° C. ([1]; vehicle Gelucire 44/14): 2.5%
% Sirolimus dissolved 70° C. ([1]; vehicle Monomuls 90 35): 2.2%
% Sirolimus dissolved 70° C. ([1]; vehicle Monomuls 90L12): 3.9%
% Sirolimus dissolved 70° C. ([1]; vehicle Monomuls 90 L12/Rylo MD50 (10:90)): 2.5%
% Sirolimus dissolved 70° C. ([1]; vehicle PEG 6000): 1.5%
% Sirolimus dissolved 70° C. ([1]; vehicle PEG 6000/Poloxamer 188 (70:30)): 2.4%
% Sirolimus dissolved 70° C. ([1]; vehicle Poloxamer 188): 1.0%
% Sirolimus dissolved 70° C. ([1]; vehicle Rylo MD50): 1.5%
mean time-to-peak concentration (tmax) ([2]; multiple oral doses in renal transplant recipients): approximately 2 hours
mean time-to-peak concentration (tmax) ([2]; oral, single dose in healthy subjects): approximately 1 hour
